Test results as given in ChEMBL document CHEMBL1134688, “Synthesis, biological evaluation, and pharmacophore generation of new pyridazinone derivatives with affinity toward alpha(1)- and alpha(2)-adrenoceptors” (J Med Chem, 2001).

target: Adrenergic receptor alpha-2 (Rattus norvegicus) (UniProt P22086+P19328+P22909); experiment: Ratio of binding affinity towards Alpha-2 and alpha-1 adrenergic receptor; type: protein assay

| Ratio | Compound |
| --- | --- |
| 26 | COc1ccccc1N1CCN(CCCCn2ncc(N3CCN(C(=O)c4ccco4)CC3)c(Cl)c2=O)CC1 |
| 5 | COc1ccccc1OCCN1CCN(c2cnn(CCN3CCN(c4ccccc4Cl)CC3)c(=O)c2Cl)CC1 |
| 4 | COc1ccccc1OCCN1CCN(c2cnn(CCCCN3CCN(c4ccccc4Cl)CC3)c(=O)c2Cl)CC1 |
| 6.5 | COc1ccccc1OCCN1CCN(c2cnn(CCCCCCCCN3CCN(c4ccccc4OC)CC3)c(=O)c2Cl)CC1 |
| 103 | COc1ccccc1OCCN1CCN(c2ccc(=O)n(CCCCN3CCN(c4ccccc4OC)CC3)n2)CC1 |
| 16.5 | COc1ccccc1OCCN1CCN(c2ccc(=O)n(CCCCCCN3CCN(c4ccccc4Cl)CC3)n2)CC1 |
| 2.7 | COc1ccccc1OCCN1CCN(c2cnn(CCCCCCCN3CCN(c4ccccc4Cl)CC3)c(=O)c2Cl)CC1 |
| 2.3 | COc1ccccc1OCCN1CCN(c2cnn(CCCCCCN3CCN(c4ccccc4OC)CC3)c(=O)c2Cl)CC1 |
| 33.3 | COc1ccccc1N1CCN(CCCn2ncc(N3CCN(C(=O)c4ccco4)CC3)c(Cl)c2=O)CC1 |

target: T1, Adrenergic receptor alpha-1 (Rattus norvegicus, UniProt P15823+P23944+P43140); experiment: Binding affinity towards alpha-1 adrenergic receptor in rat cortex membrane using [3H]-prazosin radioligand; type: cell membranes
T1 sequence (P15823 whole entry): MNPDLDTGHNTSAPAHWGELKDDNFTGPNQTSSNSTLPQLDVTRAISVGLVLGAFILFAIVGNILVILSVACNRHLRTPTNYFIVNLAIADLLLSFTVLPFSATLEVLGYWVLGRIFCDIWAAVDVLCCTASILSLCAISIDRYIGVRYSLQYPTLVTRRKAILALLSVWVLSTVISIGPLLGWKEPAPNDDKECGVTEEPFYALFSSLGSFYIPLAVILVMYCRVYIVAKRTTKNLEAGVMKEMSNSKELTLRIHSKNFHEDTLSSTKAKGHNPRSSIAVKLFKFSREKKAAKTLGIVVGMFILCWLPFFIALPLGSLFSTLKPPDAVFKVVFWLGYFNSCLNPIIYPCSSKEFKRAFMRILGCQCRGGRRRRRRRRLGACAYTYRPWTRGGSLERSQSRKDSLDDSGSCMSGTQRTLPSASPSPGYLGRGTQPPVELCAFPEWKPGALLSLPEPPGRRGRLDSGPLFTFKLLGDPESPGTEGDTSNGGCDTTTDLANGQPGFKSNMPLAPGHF
T1 sequence (P23944 whole entry): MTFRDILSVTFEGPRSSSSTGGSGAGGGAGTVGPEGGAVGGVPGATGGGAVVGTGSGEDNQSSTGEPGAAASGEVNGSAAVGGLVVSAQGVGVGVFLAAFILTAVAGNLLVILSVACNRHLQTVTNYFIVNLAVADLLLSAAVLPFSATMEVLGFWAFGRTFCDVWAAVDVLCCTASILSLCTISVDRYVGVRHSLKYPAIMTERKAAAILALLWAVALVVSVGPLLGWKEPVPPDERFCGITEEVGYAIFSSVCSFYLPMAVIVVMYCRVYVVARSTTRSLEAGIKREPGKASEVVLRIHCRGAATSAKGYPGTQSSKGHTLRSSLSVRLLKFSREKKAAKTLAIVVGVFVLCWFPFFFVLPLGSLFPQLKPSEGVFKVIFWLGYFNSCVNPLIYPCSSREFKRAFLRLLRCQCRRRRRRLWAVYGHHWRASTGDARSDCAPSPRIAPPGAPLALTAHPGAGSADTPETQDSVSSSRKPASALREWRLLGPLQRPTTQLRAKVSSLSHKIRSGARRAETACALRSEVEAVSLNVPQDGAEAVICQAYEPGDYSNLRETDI
T1 sequence (P43140 whole entry): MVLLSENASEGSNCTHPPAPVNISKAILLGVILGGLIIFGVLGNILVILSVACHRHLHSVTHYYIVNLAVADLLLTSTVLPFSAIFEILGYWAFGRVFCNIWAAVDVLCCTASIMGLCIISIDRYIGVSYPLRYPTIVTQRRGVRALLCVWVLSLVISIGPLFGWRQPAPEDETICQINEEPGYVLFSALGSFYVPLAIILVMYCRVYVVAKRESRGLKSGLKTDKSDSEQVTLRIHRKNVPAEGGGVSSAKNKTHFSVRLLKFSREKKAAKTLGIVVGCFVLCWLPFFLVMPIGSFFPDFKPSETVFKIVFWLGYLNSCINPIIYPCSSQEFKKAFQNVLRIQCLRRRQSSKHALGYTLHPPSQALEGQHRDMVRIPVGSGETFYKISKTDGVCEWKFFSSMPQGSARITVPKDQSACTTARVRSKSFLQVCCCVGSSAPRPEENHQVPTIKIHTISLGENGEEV

| Ki [nM] | Compound |
| --- | --- |
| 33.5 | COc1ccccc1N1CCN(CCCCn2ncc(N3CCN(C(=O)c4ccco4)CC3)c(Cl)c2=O)CC1 |
| 58.8 | COc1ccccc1OCCN1CCN(c2cnn(CCN3CCN(c4ccccc4Cl)CC3)c(=O)c2Cl)CC1 |
| 10 | COc1ccccc1OCCN1CCN(c2cnn(CCCCN3CCN(c4ccccc4Cl)CC3)c(=O)c2Cl)CC1 |
| 3.5 | COc1ccccc1OCCN1CCN(c2cnn(CCCCCCCCN3CCN(c4ccccc4OC)CC3)c(=O)c2Cl)CC1 |
| 0.6 | COc1ccccc1OCCN1CCN(c2ccc(=O)n(CCCCN3CCN(c4ccccc4OC)CC3)n2)CC1 |
| 8.4 | COc1ccccc1OCCN1CCN(c2ccc(=O)n(CCCCCCN3CCN(c4ccccc4Cl)CC3)n2)CC1 |
| 2.7 | COc1ccccc1OCCN1CCN(c2cnn(CCCCCCCN3CCN(c4ccccc4Cl)CC3)c(=O)c2Cl)CC1 |
| 1.5 | COc1ccccc1OCCN1CCN(c2cnn(CCCCCCN3CCN(c4ccccc4OC)CC3)c(=O)c2Cl)CC1 |
| 20.4 | COc1ccccc1N1CCN(CCCn2ncc(N3CCN(C(=O)c4ccco4)CC3)c(Cl)c2=O)CC1 |

target: T2, Adrenergic receptor alpha-2 (Rattus norvegicus, UniProt P22086+P19328+P22909); experiment: Binding affinity towards alpha-2 adrenergic receptor in rat cortex membrane using [3H]rauwolscine radioligand; type: cell membranes
T2 sequence (P22086 whole entry): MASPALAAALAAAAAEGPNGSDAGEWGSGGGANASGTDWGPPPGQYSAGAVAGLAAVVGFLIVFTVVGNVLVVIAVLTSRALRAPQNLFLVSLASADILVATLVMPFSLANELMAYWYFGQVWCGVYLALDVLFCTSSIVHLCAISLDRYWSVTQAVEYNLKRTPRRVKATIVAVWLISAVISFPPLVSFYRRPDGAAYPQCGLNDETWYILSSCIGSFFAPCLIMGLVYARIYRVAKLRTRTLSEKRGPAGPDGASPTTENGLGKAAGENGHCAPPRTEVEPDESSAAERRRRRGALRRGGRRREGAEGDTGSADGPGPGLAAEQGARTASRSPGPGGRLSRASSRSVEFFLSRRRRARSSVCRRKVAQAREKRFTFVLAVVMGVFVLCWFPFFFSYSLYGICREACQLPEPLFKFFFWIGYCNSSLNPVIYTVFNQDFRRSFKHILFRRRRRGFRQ
T2 sequence (P19328 whole entry): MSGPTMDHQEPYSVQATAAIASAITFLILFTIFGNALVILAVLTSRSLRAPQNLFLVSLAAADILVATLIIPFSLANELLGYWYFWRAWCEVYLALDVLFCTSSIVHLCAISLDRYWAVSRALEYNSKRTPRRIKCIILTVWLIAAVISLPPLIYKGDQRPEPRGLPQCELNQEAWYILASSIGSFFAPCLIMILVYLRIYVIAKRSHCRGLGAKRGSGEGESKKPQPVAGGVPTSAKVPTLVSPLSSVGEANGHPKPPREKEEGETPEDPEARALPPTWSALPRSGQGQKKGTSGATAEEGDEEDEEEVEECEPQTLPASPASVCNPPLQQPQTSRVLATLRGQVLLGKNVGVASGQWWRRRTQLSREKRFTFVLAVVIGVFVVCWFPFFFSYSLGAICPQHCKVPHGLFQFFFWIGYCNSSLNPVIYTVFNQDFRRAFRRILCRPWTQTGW
T2 sequence (P22909 whole entry): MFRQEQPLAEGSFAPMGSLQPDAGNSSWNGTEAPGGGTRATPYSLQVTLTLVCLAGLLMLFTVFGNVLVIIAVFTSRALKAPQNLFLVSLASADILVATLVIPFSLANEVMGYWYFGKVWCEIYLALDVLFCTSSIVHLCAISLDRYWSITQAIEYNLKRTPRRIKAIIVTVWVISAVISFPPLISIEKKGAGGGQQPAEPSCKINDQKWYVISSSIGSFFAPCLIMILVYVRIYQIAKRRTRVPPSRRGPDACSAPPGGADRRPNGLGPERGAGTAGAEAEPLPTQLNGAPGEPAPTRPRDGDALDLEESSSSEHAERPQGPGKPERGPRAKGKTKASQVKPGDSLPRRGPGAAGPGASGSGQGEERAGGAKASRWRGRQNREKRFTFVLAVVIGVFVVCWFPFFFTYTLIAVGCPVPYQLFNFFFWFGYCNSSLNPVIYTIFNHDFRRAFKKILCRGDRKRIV

| Ki [nM] | Compound |
| --- | --- |
| 870 | COc1ccccc1N1CCN(CCCCn2ncc(N3CCN(C(=O)c4ccco4)CC3)c(Cl)c2=O)CC1 |
| 292.3 | COc1ccccc1OCCN1CCN(c2cnn(CCN3CCN(c4ccccc4Cl)CC3)c(=O)c2Cl)CC1 |
| 39.3 | COc1ccccc1OCCN1CCN(c2cnn(CCCCN3CCN(c4ccccc4Cl)CC3)c(=O)c2Cl)CC1 |
| 22.7 | COc1ccccc1OCCN1CCN(c2cnn(CCCCCCCCN3CCN(c4ccccc4OC)CC3)c(=O)c2Cl)CC1 |
| 62 | COc1ccccc1OCCN1CCN(c2ccc(=O)n(CCCCN3CCN(c4ccccc4OC)CC3)n2)CC1 |
| 138.8 | COc1ccccc1OCCN1CCN(c2ccc(=O)n(CCCCCCN3CCN(c4ccccc4Cl)CC3)n2)CC1 |
| 7.4 | COc1ccccc1OCCN1CCN(c2cnn(CCCCCCCN3CCN(c4ccccc4Cl)CC3)c(=O)c2Cl)CC1 |
| 3.5 | COc1ccccc1OCCN1CCN(c2cnn(CCCCCCN3CCN(c4ccccc4OC)CC3)c(=O)c2Cl)CC1 |
| 680 | COc1ccccc1N1CCN(CCCn2ncc(N3CCN(C(=O)c4ccco4)CC3)c(Cl)c2=O)CC1 |

target: T1, Adrenergic receptor alpha-1; experiment: Alpha-1 adrenergic receptor binding affinity of the compound, value taken from literature; type: protein assay

| Ki [nM] | Compound |
| --- | --- |
| 11.9 | COc1ccccc1N1CCN(CCCCN2C(=O)CCC2=O)CC1 |
| 17.5 | COc1ccccc1N1CCN(CCNC(=O)C23CC4CC(CC(C4)C2)C3)CC1 |
| 0.34 | COc1ccccc1N1CCN(CCCCN2C(=O)CCc3ccccc32)CC1 |
| 374 | O=C1CCc2ccccc2N1CCCCN1CCN(c2ncccn2)CC1 |
| 258 | CCC(=O)NCCN1CCN(c2ccccc2OC)CC1 |

target: T1, Adrenergic receptor alpha-1; experiment: Alpha-1-adrenergic receptor binding affinity of the compound, value taken from literature; type: protein assay

| Ki [nM] | Compound |
| --- | --- |
| 0.21 | COc1ccccc1N1CCN(CCn2c(=O)[nH]c3c([nH]c4ccccc43)c2=O)CC1 |
